Source: US10450356B2, “PRAME derived peptides and immunogenic compositions comprising these” (Academisch Ziekenhuis Leiden H.O.D.N. LUMC, priority 2007, dated 2019)

Molecular target: T1, 20S proteasomes purified from a B-LCL cell line (immunoproteasomes) (Homo sapiens, UniProt P28062+P28065+P40306)
T1 construct: 20S proteasomes were purified from a B-LCL cell line; endogenous in cells; purified after Groettrup et al. 1995
Assay: In vitro proteasome mediated cleavage analysis
Type: biochemical
Parameters: key to Intact in fragment / Intact Fragment: intact epitope found in digestion fragments: (+), present; (-), not present; key to Processing C-term: generation by proteasome-mediated digestion of fragments containing the correct C-terminus: (++) fragments present for >5%; (+) present for <5%; (-) no fragments containing the C-term. were found
Conditions: for Processing C-term: generation by proteasome-mediated digestion of fragments containing the correct C-terminus: 1 h digestion; for Intact Fragment: intact epitope found in digestion fragments: after 1 h digestion; for C-term. generation: generation of C-terminus of the epitope after 1 h digestion; for Intact in fragment: intact epitope found in digestion fragments after 1 h digestion
Procedure: 20S proteasomes were purified from a B-LCL cell line as described by Groettrup et al. (J. Biol. Chem. 270:23808-23815; 1995). This cell type is known to contain immunoproteasomes. High LMP2 and 7 content was confirmed by 2-D immuno-blotting. To assess kinetics, digestions were performed with different incubation periods. Peptides (27 mers, 20 μg) were incubated with 1 μg of purified proteasome at 37° C. for 1 h, 4 h and 24 h in 300 μl proteasome digestion buffer as described (Eggers, et al. 1995. J. Exp. Med. 182:1865). Trifluoroacetic acid was added to stop the digestion and samples were stored at −20° C. before mass spectrometric analysis.
Electrospray ionization mass spectrometry was performed on a hybrid quadrupole time-of-flight mass spectrometer, a Q-TOF (Micromass), equipped with an on-line nanoelectrospray interface with an approximate flow rate of 250 nL/min. Injections were done with a dedicated micro/nano HPLC autosampler, the FAMOS (LC Packings). Digestion solutions were diluted five times in water-methanol-acetic acid (95:5:1, v/v/v), and trapped on the precolumn (MCA-300-05-C8; LC Packings) in water-methanol-acetic acid (95:5:1, v/v/v). Washing of the precolumn was done for 3 min to remove the buffers present in the digests. Subsequently, the trapped analytes were eluted with a steep gradient going from 70% B to 90% B in 10 min, with a flow of 250 nl/min (A: water-methanol-acetic acid (95:5:1, v/v/v); B: water-methanol-acetic acid (10:90:1, v/v/v)). This low elution rate allows for a few additional MS/MS experiments if necessary during the same elution. Mass spectra were recorded from mass 50-2000 Da every second. The resolution allows direct determination of the monoisotopic mass, also from multiple charged ions. The peaks in the mass spectrum were searched in the digested precursor peptide using the Biolynx/proteins software (Micromass). The intensity of the peaks in the mass spectra was used to establish the relative amounts of peptides generated by proteasome digestion.

Processing C-term: generation by proteasome-mediated digestion of fragments containing the correct C-terminus	Intact Fragment: intact epitope found in digestion fragments	C-term. generation	Intact in fragment	Structure (SMILES)
++ ((++) fragments present for >5%)	+	++ (abundant (++) present for >5%)	+	CC(C)C[C@H](NC(=O)[C@@H](NC(=O)CNC(=O)[C@H](CC(C)C)NC(=O)[C@@H]1CCCN1C(=O)[C@H](CC(C)C)NC(=O)[C@H](CS)NC(=O)[C@@H](NC(=O)[C@H](Cc1ccccc1)NC(=O)[C@@H]1CCCN1)[C@@H](C)O)C(C)C)C(=O)O
		+ (low abundant (+) present for <5%)	+	CC[C@H](C)[C@H](N)C(=O)N[C@H](C(=O)N[C@@H](CC(=O)O)C(=O)N[C@@H](CC(=O)O)C(=O)N[C@@H](CCC(N)=O)C(=O)N[C@@H](CC(C)C)C(=O)N[C@@H](CC(C)C)C(=O)N[C@@H](C)C(=O)N[C@@H](CC(C)C)C(=O)N[C@@H](CC(C)C)C(=O)O)[C@@H](C)O
+ ((+) present for <5%)	+	+ (low abundant (+) present for <5%)	+	CC(C)C[C@H](NC(=O)[C@H](CC(C)C)NC(=O)[C@H](CCC(=O)O)NC(=O)[C@H](CCCNC(=N)N)NC(=O)[C@H](CC(C)C)NC(=O)[C@H](CCCNC(=N)N)NC(=O)[C@H](C)NC(=O)[C@H](Cc1c[nH]cn1)NC(=O)[C@H](CC(C)C)NC(=O)[C@@H](N)Cc1ccc(O)cc1)C(=O)O
++ ((++) fragments present for >5%)	+	++ (abundant (++) present for >5%)	+	CC(C)C[C@H](NC(=O)[C@H](CCCNC(=N)N)NC(=O)[C@H](C)NC(=O)[C@H](Cc1c[nH]cn1)NC(=O)[C@H](CC(C)C)NC(=O)[C@H](Cc1ccc(O)cc1)NC(=O)[C@H](C)NC(=O)[C@H](CC(C)C)NC(=O)[C@@H](N)CCCNC(=N)N)C(=O)O
-	-			CC[C@H](C)[C@H](NC(=O)[C@H](Cc1ccc(O)cc1)NC(=O)[C@@H](N)CCCNC(=N)N)C(=O)N[C@@H](CO)C(=O)N[C@@H](CCSC)C(=O)N[C@@H](CO)C(=O)N[C@H](C(=O)N[C@@H](Cc1c[nH]c2ccccc12)C(=O)N[C@H](C(=O)N[C@@H](CO)C(=O)O)[C@@H](C)O)C(C)C
-	-			CC(C)C[C@H](NC(=O)[C@H](CC(C)C)NC(=O)[C@H](CCC(N)=O)NC(=O)[C@H](CC(=O)O)NC(=O)[C@H](CC(C)C)NC(=O)[C@H](CCCNC(=N)N)NC(=O)CNC(=O)[C@H](CCCNC(=N)N)NC(=O)[C@H](CC(C)C)NC(=O)[C@@H](N)Cc1ccccc1)C(=O)O
-	-			CC[C@H](C)[C@H](NC(=O)[C@@H](N)CO)C(=O)N[C@@H](CO)C(=O)N[C@@H](C)C(=O)N[C@@H](CC(C)C)C(=O)N[C@@H](CCC(N)=O)C(=O)N[C@@H](CO)C(=O)N[C@@H](CC(C)C)C(=O)N[C@@H](CC(C)C)C(=O)O
++ ((++) fragments present for >5%)		++ (abundant (++) present for >5%)		CSCC[C@H](NC(=O)[C@H](Cc1ccccc1)NC(=O)[C@H](CC(C)C)NC(=O)[C@@H]1CCCN1C(=O)[C@@H]1CCCN1C(=O)[C@H](Cc1ccccc1)NC(=O)[C@@H](N)CC(C)C)C(=O)N[C@@H](C)C(=O)N[C@@H](C)C(=O)N[C@@H](Cc1ccccc1)C(=O)O
		+ (low abundant (+) present for <5%)	+	CSCC[C@H](NC(=O)[C@@H](NC(=O)[C@H](CC(=O)O)NC(=O)CNC(=O)[C@H](CCC(=O)O)NC(=O)[C@H](CO)NC(=O)[C@H](CC(C)C)NC(=O)[C@@H](N)CCCNC(=N)N)C(C)C)C(=O)N[C@@H](Cc1c[nH]cn1)C(=O)N[C@@H](CC(C)C)C(=O)O
-	-			CC(C)C[C@H](NC(=O)[C@H](CCCCN)NC(=O)[C@H](CCCCN)NC(=O)[C@H](CS)NC(=O)[C@H](CS)NC(=O)[C@H](CC(C)C)NC(=O)[C@H](CCCNC(=N)N)NC(=O)[C@H](CC(C)C)NC(=O)[C@@H](N)C(C)C)C(=O)N[C@@H](CCCCN)C(=O)O
-	-			CSCC[C@H](NC(=O)[C@H](CC(C)C)NC(=O)[C@@H](N)C(C)C)C(=O)N[C@@H](CCCCN)C(=O)NCC(=O)N[C@@H](CCC(N)=O)C(=O)N[C@@H](Cc1c[nH]cn1)C(=O)N[C@@H](CC(C)C)C(=O)N[C@@H](Cc1c[nH]cn1)C(=O)N[C@@H](CC(C)C)C(=O)O
-	-			CC(C)C[C@H](NC(=O)CNC(=O)[C@H](CC(=O)O)NC(=O)[C@H](CC(C)C)NC(=O)[C@@H](NC(=O)[C@H](C)NC(=O)[C@H](CCCCN)NC(=O)[C@H](Cc1ccccc1)NC(=O)[C@@H](N)[C@@H](C)O)C(C)C)C(=O)O
++ ((++) fragments present for >5%)	+	++ (abundant (++) present for >5%)	+	CC(C)C[C@H](NC(=O)[C@H](CC(C)C)NC(=O)[C@@H](NC(=O)[C@H](CC(=O)O)NC(=O)[C@H](CC(C)C)NC(=O)CNC(=O)[C@H](CC(=O)O)NC(=O)[C@H](CC(C)C)NC(=O)[C@@H](NC(=O)[C@H](C)N)C(C)C)C(C)C)C(=O)O
++ ((++) fragments present for >5%)	+	++ (abundant (++) present for >5%)	+	CC[C@H](C)[C@H](NC(=O)[C@H](C)NC(=O)[C@H](CC(C)C)NC(=O)[C@H](C)NC(=O)[C@H](CCC(=O)O)NC(=O)[C@H](CC(=O)O)NC(=O)[C@H](CCCCN)NC(=O)[C@H](CC(C)C)NC(=O)[C@H](CC(C)C)NC(=O)[C@@H](N)CO)C(=O)O
-	-			CC[C@H](C)[C@H](NC(=O)[C@H](CC(C)C)NC(=O)[C@H](Cc1ccc(O)cc1)NC(=O)[C@H](CO)NC(=O)[C@H](Cc1ccccc1)NC(=O)[C@H](CC(C)C)NC(=O)[C@@H](N)CCC(=O)O)C(=O)N[C@@H](CCC(=O)O)C(=O)N[C@@H](CCCCN)C(=O)N[C@H](C(=O)O)C(C)C
-	-			CC(C)C[C@H](NC(=O)[C@H](CCCNC(=N)N)NC(=O)[C@H](CCC(=O)O)NC(=O)[C@H](CC(C)C)NC(=O)[C@H](Cc1c[nH]cn1)NC(=O)[C@H](CC(C)C)NC(=O)[C@@H](N)[C@@H](C)O)C(=O)N[C@@H](C)C(=O)N[C@@H](Cc1ccc(O)cc1)C(=O)O
++ ((++) fragments present for >5%)	+	++ (abundant (++) present for >5%)	+	CC[C@H](C)[C@H](NC(=O)[C@H](Cc1ccc(O)cc1)NC(=O)[C@@H](N)CCC(N)=O)C(=O)N[C@@H](C)C(=O)N[C@@H](CCC(N)=O)C(=O)N[C@@H](Cc1ccccc1)C(=O)N[C@H](C(=O)N[C@@H](CO)C(=O)N[C@@H](CCC(N)=O)C(=O)N[C@@H](Cc1ccccc1)C(=O)O)[C@@H](C)O
-	-			CC[C@H](C)[C@H](NC(=O)[C@H](C)NC(=O)[C@H](CC(C)C)NC(=O)[C@H](C)N)C(=O)N[C@@H](C)C(=O)N[C@@H](C)C(=O)N[C@@H](CC(C)C)C(=O)N[C@@H](CCC(=O)O)C(=O)N[C@@H](CC(C)C)C(=O)N[C@@H](CC(C)C)C(=O)O
-	-			CC(C)C[C@H](NC(=O)[C@H](C)NC(=O)[C@H](CCC(N)=O)NC(=O)[C@H](CC(C)C)NC(=O)[C@H](CS)NC(=O)[C@H](CCC(N)=O)NC(=O)[C@H](CC(C)C)NC(=O)[C@H](CO)NC(=O)[C@@H](N)CC(C)C)C(=O)N[C@@H](Cc1ccc(O)cc1)C(=O)O
